Test results: publication PMC6754406, “Ran pathway-independent regulation of mitotic Golgi disassembly by Importin-α” (Nature Communications, 2019)
Where a SMILES comes first, the peptide text is derived from it. Where no end group is shown, it is not given here. [ ]: non-standard residue; d: D form. pS = N[C@@H](COP(=O)(O)O)C(=O)O

What was measured:
Importin-β [1] = target: T1, Importin-β (Homo sapiens, UniProt Q14974); assay: Isothermal titration calorimetry (ITC), Importin-β; type: binding; conditions: for ITC profile (exothermic / endothermic): 25 °C
T1 construct: GST (N, cleaved yes); made in house; host or cells: Escherichia coli Rosetta
T1 sequence (Q14974 whole entry): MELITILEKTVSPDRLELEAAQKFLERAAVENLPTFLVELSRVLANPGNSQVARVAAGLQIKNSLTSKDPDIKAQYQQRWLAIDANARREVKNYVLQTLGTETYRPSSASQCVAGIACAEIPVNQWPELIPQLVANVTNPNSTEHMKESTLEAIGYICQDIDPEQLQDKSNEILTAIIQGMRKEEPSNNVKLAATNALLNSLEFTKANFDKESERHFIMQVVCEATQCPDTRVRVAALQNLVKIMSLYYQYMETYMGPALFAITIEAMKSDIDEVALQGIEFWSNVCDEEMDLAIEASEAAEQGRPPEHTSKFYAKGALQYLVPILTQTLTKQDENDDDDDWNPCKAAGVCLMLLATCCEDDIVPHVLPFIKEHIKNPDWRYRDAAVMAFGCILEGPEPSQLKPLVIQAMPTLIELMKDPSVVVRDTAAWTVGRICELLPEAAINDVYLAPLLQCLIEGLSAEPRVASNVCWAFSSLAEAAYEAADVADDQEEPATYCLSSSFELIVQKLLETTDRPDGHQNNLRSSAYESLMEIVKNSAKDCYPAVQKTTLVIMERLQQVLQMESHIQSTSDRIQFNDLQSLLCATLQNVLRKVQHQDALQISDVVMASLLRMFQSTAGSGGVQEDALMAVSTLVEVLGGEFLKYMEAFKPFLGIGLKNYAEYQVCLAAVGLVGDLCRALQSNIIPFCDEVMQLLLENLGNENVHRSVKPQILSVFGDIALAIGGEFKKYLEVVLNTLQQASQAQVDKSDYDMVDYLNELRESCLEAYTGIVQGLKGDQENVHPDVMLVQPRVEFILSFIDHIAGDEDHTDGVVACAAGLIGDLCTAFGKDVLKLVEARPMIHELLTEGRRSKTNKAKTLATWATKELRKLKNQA
Text: Homo sapiens GM130 (a.a. 1–48), GM130 (a.a. 1–85), and Importin-β were amplified by PCR and ligated into pGEX-6P-1 (GE Healthcare). H. sapiens full-length Importin-α and Mus musculus Importin-α were amplified by PCR and ligated into modified pGEX-6P-1 (GE Healthcare) that produces proteins with 6-His at the C–terminus. Mouse Importin-α shares ~95% identity with human Importin-α over the full protein sequence, so we used the former for biochemical and structural studies. GM130-S25D (a.a. 1–48), GM130-S25D (a.a. 1–85), GM130-S25D/K14A (a.a. 1–85), and GM130-S25D/K34A (a.a. 1–85) mutants were created by PCR-based mutagenesis and were verified by sequencing. A list of primer sequences used in this study is shown in Supplementary Table 1.
Binding affinities of different GM130 proteins to Importin-α and Importin-β were measured by ITC (MicroCal iTC200). All proteins were dialyzed against ITC buffer (20 mM HEPES pH 7.4, 1 mM DTT) with either 50 or 200 mM NaCl. Protein concentrations were determined spectrophotometrically with respective extinction coefficients. ITC was performed at 25 °C. The respective heat changes were fitted using a one-sites binding model.

[2] = target: T2, Importin-α(ΔIBB) (a.a. 70–524) (Mus musculus, UniProt P52293); assay: Isothermal titration calorimetry (ITC), Importin-α(ΔIBB); type: binding; conditions: 200 mM NaCl
T2 construct: Importin-α lacking the IBB domain (a.a. 70–524; hereafter Importin-α(ΔIBB)); GST (N); made in house; host or cells: Escherichia coli Rosetta
Text: Phosphorylation of GM130 on Ser-25 is correlated with p115 dissociation, with this process appearing to be specific to mitosis and being responsible for reduction of p115-mediated vesicle fusion to Golgi membranes[5]–[7],[9],[10]. The N-terminal region of GM130 and the p115 C-terminus interact[11],[12], so we purified recombinant proteins containing these two regions and then assessed their binding affinity by isothermal titration calorimetry (ITC). The wild type GM130 N-terminal region (a.a. 1-85; hereafter GM130-WT) directly bound p115 (a.a. 780–930; hereafter p115-CTD) (Fig. 1a). Furthermore, we examined if GM130 phosphorylation reduces the binding affinity for p115. […] We found in competition-binding assays that p115-CTD pulldown by GST-GM130-S25D was reduced when we added increasing amounts of Importin-α lacking the IBB domain (a.a. 70–524; hereafter Importin-α(ΔIBB)) (Fig. 1c). […] Therefore, we propose that binding of Importin-α to GM130 could be primarily responsbile for preventing interaction between p115 and GM130 during mitosis.
Homo sapiens GM130 (a.a. 1–48), GM130 (a.a. 1–85), and Importin-β were amplified by PCR and ligated into pGEX-6P-1 (GE Healthcare). […]
Binding affinities of different GM130 proteins to Importin-α and Importin-β were measured by ITC (MicroCal iTC200). […] Protein concentrations were determined spectrophotometrically with respective extinction coefficients. […]

Cdk1 = conditions: 1-h RO-3306 treatment; ref [23]; cited from earlier work
[3] = test system: Importin-α associated with GM130; assay: Immuno-precipitation of Importin-α with GM130 antibody, RO-3306-treated nocodazole-arrested HEK293T cells; type: cell-based; conditions: RO-3306-treated vs untreated, 10 µM/ml, 2 h; three independent experiments
Procedure: (§1) To pull down endogenous GM130, HEK293T cells were synchronized via nocodazole treatment and lysed in a buffer containing 50 mM Tris–HCl (pH 7.4), 150 mM NaCl, 1 mM EDTA, 10% glycerol, 1% Triton, 0.15% SDS, protease inhibitor cocktail (Roche), and 1 mM PMSF. Clarified lysates were pre-incubated with GM130 antibody (Abcam ab52649) for 12 h at 4 °C, followed by one hour incubation with IgG sepharose^TM 6 Fast Flow (GE Healthcare). Beads were then washed three times with buffer (20 mM HEPES pH 7.4, 150 mM NaCl, 1.5 mM MgCl2, 10% glycerol, 0.1% Triton). Protein samples were boiled in SDS sample buffer and analyzed by SDS–PAGE, followed by Western blotting analysis.
(§2) To prepare Cdk1 inhibitor treated lysates for GM130 pull-down assays, WT HEK293T cells were synchronized by 30 µM of nocodazole for 13 h, followed by treatment of Cdk1 inhibitor RO-3306 (10 µM/ml) (Sigma, cat#SML0569) for 2 h.
(§3) Sup ple me ntary Figu re 5. Cell-base d e xam ination of the K34A mutation of G M130. a, Representative fluorescent images of w ild-type and two K34A mutant cell lines at metaphase.
(§4) Sca le b a r : 1 0 µm. b, Images of nocodaz o le-ar r e st ed H EK 2 9 3 T ce ll s without (left) and w ith (right) RO-3306 treatment acquired by bright-field illum ination. Sc ale ba r: […]

[4] = test system: p115 associated with GM130; assay: Immuno-precipitation of p115 with GM130 antibody, RO-3306-treated nocodazole-arrested HEK293T cells; type: cell-based; conditions: RO-3306-treated vs untreated, 10 µM/ml, 2 h; three independent experiments
Procedure: as §1, §2, §3, §4

Importin-β [5] = target: T1, Importin-β; assay: Size exclusion chromatography co-migration with Importin-β; type: binding; conditions: Superdex 200, 20 mM HEPES pH 7.4, 50 mM NaCl, 3 mM DTT, 1:1
Procedure: Fig. 4 Ran and a phosphate moiety repress GM130 and Importin-β interaction. a SEC (Superdex 200) elution profiles for the Importin-β•GST-GM130-WT complex (black line), Importin-β (gray line), and GST-GM130-WT (light gray line). The void volume (Vo) is indicated. b–d The peak fractions of the Importin-β•GST-GM130-WT complex (b), Importin-β (c), and GST-GM130-WT (d) were analyzed by SDS–PAGE and stained with Coomassie blue. e, f ITC titration curves (upper) and binding isotherms (lower) of Importin-β with GM130-NLS WT (e) and GM130-NLS phospho-S25 (f). Kd values are indicated. g Competition binding assay. GST-GM130-S25D and Importin-β were incubated with indicated concentrations of GFP-IBB. Samples pulled down by GST beads were analyzed by SDS–PAGE and stained with Coomassie blue. […] GST-bound samples were analyzed by SDS–PAGE and stained with Coomassie blue. i, k Band intensities of Importin-α or Importin-β from the SDS–PAGE gels in h, j were used to determine averages of bound protein. […]
GST-GM130-WT and GST-GM130-S25D were, respectively, incubated with Importin-β or Importin-α FL in a molar ratio of 1:1. […] Peak fractions were analyzed by SDS–PAGE.

## CC[C@H](C)[C@H](NC(=O)[C@H](CCCCN)NC(=O)[C@H](CCCCN)NC(=O)[C@H](CCCCN)NC(=O)[C@H](CCCCN)NC(=O)[C@H](CCCCN)NC(=O)[C@H](C)NC(=O)CNC(=O)[C@@H](NC(=O)[C@@H]1CCCN1C(=O)[C@@H](NC(=O)CNC(=O)[C@@H]1CCCN1C(=O)[C@H](COP(=O)(O)O)NC(=O)[C@H](CC(N)=O)NC(=O)[C@H](CCCNC(=N)N)NC(=O)[C@H](CCC(N)=O)NC(=O)[C@H](CCC(N)=O)NC(=O)[C@H](Cc1ccc(O)cc1)NC(=O)[C@H](CCC(=O)O)NC(=O)[C@H](CCCNC(=N)N)NC(=O)[C@H](CC(C)C)NC(=O)[C@H](CCCCN)NC(=O)[C@H](CCCCN)NC(=O)[C@H](CCCCN)NC(=O)[C@H](C)N)C(C)C)[C@@H](C)O)C(=O)N[C@@H](CCCCN)C(=O)N[C@@H](CC(N)=O)C(=O)O [GM130-NLS phospho-S25] (H-AKKKLREYQQRN[pS]PGVPTGAKKKKKIKN-OH; N-terminus and C-terminus assumed)
Importin-β [1]
  ITC profile (exothermic / endothermic): endothermic curve
Importin-β [1]; relative to wild-type GM130 peptide
  binding constant relative to wild-type GM130 peptide: at least three orders of magnitude lower
[2]
  binding affinity for Importin-α(ΔIBB) vs wild type: better binding affinities

## O=C1NC(=NCc2cccs2)S/C1=C\c1ccc2ncccc2c1 [RO-3306]
Cdk1
  block of Cdk1 activity: sufficient to block Cdk1 activity
  morphological transition: morphological transition from rounded mitotic cells to a flat interphase shape
[3]
  Importin-α pulldown by GM130: reduced
[4]
  p115 pulldown by GM130: enhanced

## AKKKLREYQQRNSPGVPTGAKKKKKIK [GM130-NLS WT]
Importin-β [1]
  ITC profile (exothermic / endothermic): exothermic profile
Importin-β [5]
  co-migration with Importin-β by SEC: co-migration
